According to US8450245B2, “Heterocyclic alkanol derivatives” (Bayer Intellectual Property GmbH, priority 2010, dated 2013):

Tests used:
Alternaria solani = assay: Alternaria test (tomato)/protective; format: in vivo; details: young tomato plants sprayed at 500 ppm, inoculated one day after treatment, evaluation 7 days after inoculation; 100% = no infection
Procedure: Solvent: 49 parts by weight of N,N-dimethylformamide Emulsifier: 1 part by weight of alkylaryl polyglycol ether To produce an appropriate active ingredient formulation, 1 part by weight of active ingredient is mixed with the specified amounts of solvent and emulsifier, and the concentrate is diluted with water to the desired concentration. To test for protective activity, young tomato plants are sprayed with the active ingredient formulation at the stated application rate. One day after the treatment, the plants are inoculated with a spore suspension of Alternaria solani and are then left at 100% relative humidity and 22° C. for 24 h. The plants are then left at 96% relative air humidity and a temperature of 20° C. Evaluation follows 7 days after the inoculation. 0% means an efficacy which corresponds to that of the control, whereas an efficacy of 100% means that no infection is observed. In this test, the following inventive compounds, at an active ingredient concentration of 500 ppm, show an efficacy of 70% or more.

[1] = logP by HPLC on reversed-phase columns (C 18), EEC Directive 79/831 Annex V.A8; format: physicochemical; details: reversed-phase HPLC column (C 18); method [a]: LC-MS, acidic range, pH 2.7, 0.1% aqueous formic acid and acetonitrile, linear gradient 10% to 95% acetonitrile
Procedure: The logP values were measured in accordance with EEC Directive 79/831 Annex V.A8 by HPLC (High Performance Liquid Chromatography) using reversed-phase columns (C 18) by the following methods: [a] The LC-MS determination in the acidic range is effected at pH 2.7 with 0.1% aqueous formic acid and acetonitile (contains 0.1% formic acid) as eluents; linear gradient from 10% acetonitrile to 95% acetonitrile.

Sphaerotheca fisliginea = assay: Sphaerotheca test (cucumber)/protective; format: in vivo; details: young cucumber plants sprayed at 500 ppm, inoculated one day after treatment, evaluation 7 days after inoculation; 100% = no infection
Procedure: Solvent: 49 parts by weight of N,N-dimethylformamide
Emulsifier: 1 part by weight of alkylaryl polyglycol ether
To produce an appropriate active ingredient formulation, 1 part by weight of active ingredient is mixed with the specified amounts of solvent and emulsifier, and the concentrate is diluted with water to the desired concentration. To test for protective activity, young cucumber plants are sprayed with the formulation of active ingredient at the stated application rate. One day after the treatment, the plants are inoculated with a spore suspension of Sphaerotheca fisliginea. The plants are then placed in a greenhouse at 70% relative air humidity and a temperature of 23° C. Evaluation follows 7 days after the inoculation. 0% means an efficacy which corresponds to that of the control, whereas an efficacy of 100% means that no infection is observed. In this test, the following inventive compounds, at an active ingredient concentration of 500 ppm, show an efficacy of 70% or more.

chromatographic logP [1]: 3.76
SMILES: CC(C)(C)C(O)(COc1ccc(I)c(F)c1F)c1cncs1 (stereo not drawn) [Compound 1]
Efficacy (%) (Alternaria solani): 100% | Efficacy (%) (Sphaerotheca fisliginea): 94%
